Data on three compounds can be found in US20150133431A1, “GGA DERIVATIVES” (COYOTE PHARMACEUTICALS, INC., priority 2013, published 2015).

For experiment [1] the following is noted: in certain situations; Katsuno et al., PNAS 2003; cited from earlier work.
The subject of the next experiment is cells. As to the kind of experiment: cytoprotective effects on cells, GGA isomers. The class given is cell-based. The procedure: The isolated cis- and trans-compounds described herein are also useful in assays which access a compound having putative cytoprotective effects. In particular, in such assays, the cis-isomer of GGA will behave as baseline or negative control and the trans-isomer as a positive control. The putative compound is tested in the assay described variously herein and its activity correlated against the cis- and trans-isomers. […] Accordingly, the cis-isomer finds utility as a negative control in the assay.

On to `CC(=O)CC/C=C(\C)CC/C=C(\C)CC/C=C(\C)CCC=C(C)C` [GGA, Geranylgeranyl acetone], for which the “concentration of GGA required to exert a cytoprotective effect” value in experiment [1] is given as “more than 600 mg per kg per day”.

Regarding `CC(=O)CC/C=C(\C)CC/C=C(\C)CC/C=C(\C)CCC=C(C)C` [trans-isomer of GGA, 5E,9E,13E-Geranylgeranyl acetone], in the experiment on cells (comparison of isomers), the “cytoprotective efficacy compared with 1:2 to 1:3 cis:trans mixture of GGA and cis-isomer alone” value is reported as “more efficacious at lower concentrations”.

Regarding `CC(=O)CC/C=C(/C)CC/C=C(\C)CC/C=C(\C)CCC=C(C)C` [cis-isomer, 5Z,9E,13E-Geranylgeranyl acetone], in the experiment with cells (increasing amounts of the cis-isomer), the “effect of increasing amounts of cis-isomer on activity of trans-isomer” value is listed as “antagonize the activity of the trans-isomer”.
